13 molecules from patent US20230069722A1, “TUBULYSINS AND PROTEIN-TUBULYSIN CONJUGATES” (priority 2020, published 2023) can be followed below.

The test has as its system HCT15 cells. Briefly: MDR cell based killing assay, HCT15 cells with or without Verapamil (CellTiter-Glo). The note with it: for IC50: Homo sapiens. Also noted: species or system human. The method, then: To test the ability of the disclosed tubulysin payloads or prodrug payloads to kill human cell lines, an in vitro cytotoxicity assay can be performed. In vitro cytotoxicity of the disclosed payloads, as well as reference compounds, are evaluated using the CellTiter-Glo Assay Kit (Promega, Cat # G7573), in which the quantity of ATP present is used to determine the number of viable cells in culture. For the assay, C4-2, HEK293, or T47D cells are seeded at 4000 cells/well on Nunclon white 96-well plates in complete growth medium (DME high glucose:Ham's F12 at 4:1, 10% FBS, 100 units/ml Penicillin, 100 ug/ml streptomycin, 53 ug/ml glutatmine, 10 ug/ml insulin, 220 ng/ml biotin, 12.5 pg/ml T3, 12.5 ug/ml Adenine, 4 ug/ml transferrin for C42 cells; DME high glucose, 10% FBS, 100 units/ml Penicillin, 100 ug/ml streptomycin, 53 ug/ml glutatmine for HEK293; RPMI, 10% FBS, 100 units/ml Penicillin, 100 ug/ml streptomycin, 53 ug/ml glutatmine, 10 ug/ml insulin, 10 mM HEPEs, 200 nM Sodium Pyruvate for T47D cells) and grown overnight at 37° C. in 5% CO2. For cell viability curves, 1:3 serially diluted payloads are added to the cells at final concentrations ranging from 100 nM to 15 pM, including a no treatment control group, and are then incubated for 5 days. After the 5-day incubation, cells are incubated at room temperature with 100 μL of CellTiter-Glo reagents for 10 minutes. Relative luminescence units (RLU) can be determined on a Victor plate reader (PerkinElmer). The IC50 values are determined from a four-parameter logistic equation over a 10-point response curve (GraphPad Prism). All IC50 values are expressed in molar (M) concentration. The percent cell killing (% kill) at the maximum concentration tested is estimated from the following formula (100−% viable cells). Averages±standard deviation (SD) can be included where replicate experiments are performed.
In vitro cytotoxicity of the disclosed payloads as well as reference compounds are evaluated similarly as described above except using 1000 HCT15 cells, a colorectal carcinoma cell line, in growth medium (RPMI, 10% FBS, 100 units/ml Penicillin, 100 ug/ml streptomycin, 53 ug/ml glutatmine) with or without 5 ug/mL of Verapamil.
For each payload or prodrug payload, the HCT-15 IC50 in the absence of Verapamil is divided by the HCT-15 IC50 in the presence of Verapamil (HCT-15 IC50/HCT-15+Verapamil IC50). […] The reference compound, (MMAE), can have a ratio of 23.7. […]

[1] abbreviates: HCT-15, read-out: HCT-15 with verapamil IC50.

Read-outs that look alike come from different tables or passages of the source.

For `CCCCCCN(C(=O)[C@@H](NC(=O)[C@H]1CCCCN1C)[C@@H](C)CC)[C@H](C[C@@H](OC(C)=O)c1nc(C(=O)N[C@@H](Cc2ccc(F)cc2)CC(C)(C)C(=O)NS(=O)(=O)c2ccc(N)cc2)cs1)C(C)C` [Compound P47, (1R,3R)-1-(4-{[(2S)-4-[(4-aminobenzenesulfonyl)carbamoyl]-1-(4-fluorophenyl)-4,4-dimethylbutan-2-yl]carbamoyl}-1,3-thiazol-2-yl)-3-[(2S,3S)—N-hexyl-3-methyl-2-{[(2R)-1-methylpiperidin-2-yl]formamido}pentanamido]-4-methylpentyl Acetate], the IC50 (HCT-15, read-out: HCT-15 IC50) turned out to be 53.5 nM.

`CCCCCCN(C(=O)[C@@H](NC(=O)[C@H]1CCCCN1C)[C@@H](C)CC)[C@H](C[C@@H](OC(C)=O)c1nc(C(=O)N[C@@H](Cc2ccc(NC(=O)CO)cc2)CC(C)(C)C(=O)O)cs1)C(C)C` [Compound P29, (4S)-4-({2-[(1R,3R)-1-(acetyloxy)-3-[(2S,3S)—N-hexyl-3-methyl-2-{[(2R)-1-methylpiperidin-2-yl]formamido}pentanamido]-4-methylpentyl]-1,3-thiazol-4-yl}formamido)-5-[4-(2-hydroxyacetamido)phenyl]-2,2-dimethylpentanoic Acid]: the IC50 runs as follows: (HCT-15, read-out: HCT-15 IC50) 4.68 nM; under setting [1], 0.67 nM. Also, for the setting “IC50 ratio to parent payload with Xa = H, with verapamil”, the “HCT-15 with verapamil Ratio to Xa = H” value is on record as 35x. For the same molecule, the “HCT-15 Ratio to Xa = H” value (IC50 ratio to parent payload with Xa = H, without verapamil) came out at 104x.

On to `CCCCCCN(C(=O)[C@@H](NC(=O)[C@H]1CCCCN1C)[C@@H](C)CC)[C@H](C[C@@H](OC(C)=O)c1nc(C(=O)NS(=O)(=O)Cc2ccc(N)cc2)cs1)C(C)C` [Compound P44, (1R,3R)-1-(4-{[(4-aminophenyl)methanesulfonyl]carbamoyl}-1,3-thiazol-2-yl)-3-[(2S,3S)—N-hexyl-3-methyl-2-{[(2R)-1-methylpiperidin-2-yl]formamido}pentanamido]-4-methylpentyl Acetate], for which, where the note is “HCT-15, read-out: HCT-15 IC50”, the IC50 is 25.8 nM.

For the molecule `CCCCCCN(C(=O)[C@@H](NC(=O)[C@@]1(C)CCCN1)[C@@H](C)CC)[C@H](C[C@@H](OC(C)=O)c1nc(C(=O)N[C@@H](Cc2ccc(O)cc2)CC(C)(C)C(=O)O)cs1)C(C)C` [Compound P22, (4S)-4-({2-[(1R,3R)-1-(acetyloxy)-3-[(2S,3S)—N-hexyl-3-methyl-2-{[(2R)-2-methylpyrrolidin-2-yl]formamido}pentanamido]-4-methylpentyl]-1,3-thiazol-4-yl}formamido)-5-(4-hydroxyphenyl)-2,2-dimethylpentanoic Acid], the concentration for half-maximal inhibition (IC50) is 0.27 nM (HCT-15, read-out: HCT-15 IC50) and 0.08 nM under setting [1].

Turning to `C#CCCCON(C(=O)[C@@H](NC(=O)[C@H]1CCCCN1C)[C@@H](C)CC)[C@H](C[C@@H](OC(C)=O)c1nc(C(=O)NS(=O)(=O)Cc2ccc(N)cc2)cs1)C(C)C` [Compound P49, (1R,3R)-1-(4-{[(4-aminophenyl)methanesulfonyl]carbamoyl}-1,3-thiazol-2-yl)-4-methyl-3-[(2S,3S)-3-methyl-2-{[(2R)-1-methylpiperidin-2-yl]formamido}-N-(pent-4-yn-1-yloxy)pentanamido]pentyl Acetate], the IC50 (HCT-15, read-out: HCT-15 IC50) is 163 nM.

As for `CCCCCCN(C(=O)[C@@H](NC(=O)[C@H]1CCCCN1C)[C@@H](C)CC)[C@H](C[C@@H](O)c1nc(C(=O)N[C@@H](Cc2ccc(N)cc2)CC(C)(C)C(=O)O)cs1)C(C)C` [Compound P6, (4S)-5-(4-aminophenyl)-4-({2-[(1R,3R)-3-[(2S,3S)—N-hexyl-3-methyl-2-{[(2R)-1-methylpiperidin-2-yl]formamido}pentanamido]-1-hydroxy-4-methylpentyl]-1,3-thiazol-4-yl}formamido)-2,2-dimethylpentanoic Acid], the half-maximal inhibitory concentration (IC50) by setting is: (HCT-15, read-out: HCT-15 IC50) 16.3 nM; under setting [1], 0.78 nM.

Turning to `CCCCCCN(C(=O)[C@@H](NC(=O)[C@@]1(C)CCCN1)[C@@H](C)CC)[C@H](C[C@@H](OC(C)=O)c1nc(C(=O)N[C@@H](Cc2ccc(N)c(F)c2)CC(C)(C)C(=O)O)cs1)C(C)C` [Compound P15, (4S)-4-({2-[(1R,3R)-1-(acetyloxy)-3-[(2S,3S)—N-hexyl-3-methyl-2-{[(2R)-2-methylpyrrolidin-2-yl]formamido}pentanamido]-4-methylpentyl]-1,3-thiazol-4-yl}formamido)-5-(4-amino-3-fluorophenyl)-2,2-dimethylpentanoic Acid], the IC50 reads like this: (HCT-15, read-out: HCT-15 IC50) 1.01 nM; under setting [1], 0.19 nM.

Consider `CCCCCCN(C(=O)[C@@H](NC(=O)[C@H]1CCCCN1C)[C@@H](C)CC)[C@H](C[C@@H](OC(C)=O)c1nc(C(=O)N[C@@H](Cc2ccc(N)cc2)CC(C)(C)C(=O)O)cs1)C(C)C` [Compound P7, (4S)-4-({2-[(1R,3R)-1-(acetyloxy)-3-[(2S,3S)—N-hexyl-3-methyl-2-{[(2R)-1-methylpiperidin-2-yl]formamido}pentanamido]-4-methylpentyl]-1,3-thiazol-4-yl}formamido)-5-(4-aminophenyl)-2,2-dimethylpentanoic Acid], for which the IC50 by setting is: (HCT-15, read-out: HCT-15 IC50) 0.02 nM; under setting [1], 0.02 nM.

For `CCCCCCN(C(=O)[C@@H](NC(=O)[C@@]1(C)CCCN1C)[C@@H](C)CC)[C@H](C[C@@H](OC(C)=O)c1nc(C(=O)N[C@@H](Cc2ccc(N)cc2)CC(C)(C)C(=O)O)cs1)C(C)C` [Compound P19, (4S)-4-({2-[(1R,3R)-1-(acetyloxy)-3-[(2S,3S)-2-{[(2R)-1,2-dimethylpyrrolidin-2-yl]formamido}-N-hexyl-3-methylpentanamido]-4-methylpentyl]-1,3-thiazol-4-yl}formamido)-5-(4-aminophenyl)-2,2-dimethylpentanoic Acid], the IC50 runs as follows: (HCT-15, read-out: HCT-15 IC50) 0.2 nM; under setting [1], 0.01 nM.

With `C#CCCCON(C(=O)[C@@H](NC(=O)[C@H]1CCCCN1C)[C@@H](C)CC)[C@H](C[C@@H](OC(C)=O)c1nc(C(=O)N[C@@H](Cc2ccc(NC(=O)[C@H](N)CCC(=O)O)cc2)CC(C)(C)C(=O)O)cs1)C(C)C` [Compound P41, (4S)-4-({2-[(1R,3R)-1-(acetyloxy)-4-methyl-3-[(2S,3S)-3-methyl-2-{[(2R)-1-methylpiperidin-2-yl]formamido}-N-(pent-4-yn-1-yloxy)pentanamido]pentyl]-1,3-thiazol-4-yl}formamido)-5-{4-[(2R)-2-amino-4-carboxybutanamido]phenyl}-2,2-dimethylpentanoic Acid], the IC50 (HCT-15, read-out: HCT-15 IC50) stood at 82.7 nM.

As to `CCCCCCN(C(=O)[C@@H](NC(=O)[C@H]1CCCCN1C)[C@@H](C)CC)[C@H](C[C@@H](OC(=O)NCCOCCOCCOCCN)c1nc(C(=O)N[C@@H](Cc2ccc(F)cc2)CC(C)(C)C(=O)O)cs1)C(C)C` [Compound P11, (4S)-4-({2-[(1R,3R)-1-{[(2-{2-[2-(2-aminoethoxy)ethoxy]ethoxy}ethyl)carbamoyl]oxy}-3-[(2S,3S)—N-hexyl-3-methyl-2-{[(2R)-1-methylpiperidin-2-yl]formamido}pentanamido]-4-methylpentyl]-1,3-thiazol-4-yl}formamido)-5-(4-fluorophenyl)-2,2-dimethylpentanoic Acid], where the note is “HCT-15, read-out: HCT-15 IC50”, the IC50 was found to be 157 nM.

On to `CCCCCCN(C(=O)[C@@H](NC(=O)[C@H]1CCCCN1C)[C@@H](C)CC)[C@H](C[C@@H](OCC)c1nc(C(=O)N[C@@H](Cc2ccc(N)cc2)CC(C)(C)C(=O)O)cs1)C(C)C` [Compound P8, (4S)-5-(4-aminophenyl)-4-({2-[(1R,3R)-1-ethoxy-3-[(2S,3S)—N-hexyl-3-methyl-2-{[(2R)-1-methylpiperidin-2-yl]formamido}pentanamido]-4-methylpentyl]-1,3-thiazol-4-yl}formamido)-2,2-dimethylpentanoic Acid], for which the IC50 (HCT-15, read-out: HCT-15 IC50) amounted to 0.24 nM and the concentration for half-maximal inhibition (IC50) under setting [1] was 0.06 nM.

In the case of `CCCCCCN(C(=O)[C@@H](NC(=O)[C@H]1CCCCN1)[C@@H](C)CC)[C@H](C[C@@H](OCC)c1nc(C(=O)N[C@@H](Cc2ccc(N)c(F)c2)CC(C)(C)C(=O)O)cs1)C(C)C` [Compound P16, (4S)-5-(4-amino-3-fluorophenyl)-4-({2-[(1R,3R)-1-ethoxy-3-[(2S,3S)—N-hexyl-3-methyl-2-[(2R)-piperidin-2-ylformamido]pentanamido]-4-methylpentyl]-1,3-thiazol-4-yl}formamido)-2,2-dimethylpentanoic Acid], the IC50 (HCT-15, read-out: HCT-15 IC50) came to 1.96 nM and the IC50 under setting [1] came out at 0.18 nM.

As a reminder, the IC50 is the concentration needed to halve the response being measured.
